Source: ChEMBL document CHEMBL3044745, “Synthesis and evaluation of biological and nonlinear optical properties of some novel 2,4-disubstituted [1,3]-thiazoles carrying 2-(aryloxymethyl)-phenyl moiety” (2013)

Experiments:
Assay type in all cases: functional
Aspergillus niger = assay: Antifungal activity against Aspergillus niger assessed as growth inhibition at 10 ug/disk; details: read-out: IZ
Candida albicans = assay: Antifungal activity against Candida albicans assessed as growth inhibition at 10 ug/disk; details: read-out: IZ
Pseudomonas aeruginosa = assay: Antibacterial activity against Pseudomonas aeruginosa assessed as growth inhibition at 10 ug/disk; details: read-out: IZ
Escherichia coli = assay: Antibacterial activity against Escherichia coli assessed as growth inhibition at 10 ug/disk; details: read-out: IZ
Bacillus subtilis = assay: Antibacterial activity against Bacillus subtilis assessed as growth inhibition at 10 ug/disk; details: read-out: IZ
Staphylococcus aureus = assay: Antibacterial activity against Staphylococcus aureus assessed as growth inhibition at 10 ug/disk; details: read-out: IZ
Rattus norvegicus = assay: Anti-inflammatory activity in Rattus norvegicus Wistar albino (rat) assessed as inhibition of carrageenan-induced paw edema at 10 mg/kg, po relative to untreated control

| Structure (SMILES) | zone of inhibition at 10 µg/disc (Aspergillus niger) [mm] | zone of inhibition at 10 µg/disc (Candida albicans) [mm] | zone of inhibition at 10 µg/disc (Pseudomonas aeruginosa) [mm] | zone of inhibition at 10 µg/disc (Escherichia coli) [mm] | zone of inhibition at 10 µg/disc (Bacillus subtilis) [mm] | zone of inhibition at 10 µg/disc (Staphylococcus aureus) [mm] | inhibition in vivo at 10 mg/kg (Rattus norvegicus) [%] |
| --- | --- | --- | --- | --- | --- | --- | --- |
| Clc1ccc(OCc2ccccc2-c2nc(CN3CCN(C(c4ccccc4)c4ccc(Cl)cc4)CC3)cs2)cc1 (stereo not drawn) | 25 | 28 | 26 | 28 | 26 | 27 | 76.4 |
| Cc1ccccc1OCc1ccccc1-c1nc(COc2ccc(Cl)cc2)cs1 | 16 | 20 | 20 | 22 | 18 | 20 | 65.1 |
| Cc1cccc(OCc2ccccc2-c2nc(COc3ccc(Cl)cc3)cs2)c1 | 18 | 22 | 18 | 20 | 22 | 24 | 67.7 |
| Cc1ccc(OCc2ccccc2-c2nc(COc3ccc(Cl)cc3)cs2)cc1 | 18 | 20 | 17 | 24 | 19 | 22 | 68.7 |
| Clc1ccc(OCc2csc(-c3ccccc3COc3ccc(Cl)cc3)n2)cc1 | 24 | 26 | 24 | 26 | 27 | 28 | 76.4 |
| Cc1ccccc1OCc1ccccc1-c1nc(-c2ccc(O)c(C(N)=O)c2)cs1 | 18 | 16 | 21 | 20 | 18 | 18 | 40.5 |
| Cc1cccc(OCc2ccccc2-c2nc(-c3ccc(O)c(C(N)=O)c3)cs2)c1 | 11 | 18 | 22 | 20 | 22 | 22 | 42.9 |
| Cc1ccc(OCc2ccccc2-c2nc(-c3ccc(O)c(C(N)=O)c3)cs2)cc1 | 18 | 20 | 20 | 19 | 20 | 20 | 46.7 |
| NC(=O)c1cc(-c2csc(-c3ccccc3COc3ccc(Cl)cc3)n2)ccc1O | 25 | 27 | 24 | 28 | 26 | 28 | 72.2 |
| Cc1ccccc1OCc1ccccc1-c1nc(-c2cc(Cl)sc2S(N)(=O)=O)cs1 | 16 | 18 | 22 | 20 | 20 | 22 | 70.1 |
| Cc1cccc(OCc2ccccc2-c2nc(-c3cc(Cl)sc3S(N)(=O)=O)cs2)c1 | 18 | 19 | 18 | 20 | 16 | 18 | 66.8 |
| Cc1ccc(OCc2ccccc2-c2nc(-c3cc(Cl)sc3S(N)(=O)=O)cs2)cc1 | 16 | 20 | 20 | 22 | 18 | 20 | 68.7 |
| NS(=O)(=O)c1sc(Cl)cc1-c1csc(-c2ccccc2COc2ccc(Cl)cc2)n1 | 24 | 26 | 24 | 26 | 28 | 28 | 76.4 |
| Cc1ccccc1OCc1ccccc1-c1nc(-c2cccc(Br)c2)cs1 | 11 | 10 | 8 | 8 | 12 | 10 | 40.4 |
| Cc1cccc(OCc2ccccc2-c2nc(-c3cccc(Br)c3)cs2)c1 | 16 | 14 | 10 | 10 | 10 | 12 | 46.7 |
| Cc1ccc(OCc2ccccc2-c2nc(-c3cccc(Br)c3)cs2)cc1 | 11 | 14 | 10 | 8 | 12 | 10 | 44.5 |

| Structure (SMILES) | zone of inhibition at 10 µg/disc (Aspergillus niger) [mm] | zone of inhibition at 10 µg/disc (Candida albicans) [mm] | zone of inhibition at 10 µg/disc (Pseudomonas aeruginosa) [mm] | zone of inhibition at 10 µg/disc (Escherichia coli) [mm] | zone of inhibition at 10 µg/disc (Bacillus subtilis) [mm] | zone of inhibition at 10 µg/disc (Staphylococcus aureus) [mm] | inhibition in vivo at 10 mg/kg (Rattus norvegicus) [%] |
| --- | --- | --- | --- | --- | --- | --- | --- |
| Clc1ccc(OCc2ccccc2-c2nc(-c3cccc(Br)c3)cs2)cc1 | 18 | 20 | 18 | 22 | 20 | 22 | 42.9 |
| Cc1ccccc1OCc1ccccc1-c1nc(-c2ccc([N+](=O)[O-])cc2)cs1 | 14 | 12 | 10 | 14 | 12 | 10 | 46.7 |
| Cc1cccc(OCc2ccccc2-c2nc(-c3ccc([N+](=O)[O-])cc3)cs2)c1 | 8 | 9 | 10 | 11 | 12 | 8 | 46.7 |
| Cc1ccc(OCc2ccccc2-c2nc(-c3ccc([N+](=O)[O-])cc3)cs2)cc1 | 14 | 11 | 12 | 10 | 10 | 12 | 56.9 |
| O=[N+]([O-])c1ccc(-c2csc(-c3ccccc3COc3ccc(Cl)cc3)n2)cc1 | 18 | 20 | 18 | 22 | 18 | 22 | 67.1 |
| Cc1ccccc1OCc1ccccc1-c1nc(CN2CCN(C(c3ccccc3)c3ccccc3)CC2)cs1 | 8 | 9 | 18 | 20 | 23 | 23 | 64 |
| Cc1cccc(OCc2ccccc2-c2nc(CN3CCN(C(c4ccccc4)c4ccccc4)CC3)cs2)c1 | 11 | 10 | 20 | 22 | 20 | 19 | 64.1 |
| Cc1ccc(OCc2ccccc2-c2nc(CN3CCN(C(c4ccccc4)c4ccccc4)CC3)cs2)cc1 | 8 | 10 | 18 | 18 | 21 | 20 | 63.9 |
| Clc1ccc(OCc2ccccc2-c2nc(CN3CCN(C(c4ccccc4)c4ccccc4)CC3)cs2)cc1 | 24 | 28 | 26 | 28 | 26 | 28 | 64.9 |
| Cc1ccccc1OCc1ccccc1-c1nc(CN2CCN(C(c3ccccc3)c3ccc(Cl)cc3)CC2)cs1 (stereo not drawn) | 20 | 22 | 24 | 26 | 28 | 28 | 63.1 |
| Cc1cccc(OCc2ccccc2-c2nc(CN3CCN(C(c4ccccc4)c4ccc(Cl)cc4)CC3)cs2)c1 (stereo not drawn) | 18 | 20 | 25 | 27 | 28 | 28 | 62.6 |
| Cc1ccc(OCc2ccccc2-c2nc(CN3CCN(C(c4ccccc4)c4ccc(Cl)cc4)CC3)cs2)cc1 (stereo not drawn) | 19 | 20 | 24 | 28 | 28 | 28 | 56.9 |
| O=C(O)c1cn(C2CC2)c2cc(N3CCNCC3)c(F)cc2c1=O [CIPROFLOXACIN] |  |  | 25 | 28 | 26 | 26 |  |
| O=C(O)Cc1ccccc1Nc1c(Cl)cccc1Cl [DICLOFENAC SODIUM] |  |  |  |  |  |  | 75.9 |
| OC(Cn1cncn1)(Cn1cncn1)c1ccc(F)cc1F [FLUCONAZOLE] | 25 | 26 |  |  |  |  |  |
